One experiment relates to morphine analgesia. The experiment in a line: Increase in analgesia of morphine, Tail Flick Test (Experiment 1). In kind it is in vivo, rats. Conditions: for percentage variation of latency of pain sensation / M (10-90) ± SE, mean percentage variation of latency: compound 10 mg/kg i.p. + morphine 2 mg/kg; for M (10-90) ± SE, mean percentage variation of latency: mean 10-90 min; for Power ratio with respect to morphine alone: rat, in vivo. How it is done: Experiment No: 1 Increase in analgesia of analgesic-narcotic drugs in rats by the Tail Flick Test
The method is that described by Harris et al. (J. Pharmacol. Exp. Ther. 143 (1964) 141-148).
Male rats are used having a weight of about 150-200 g which have not fasted. A point on the tail is chosen and irradiated by a heat source (75° C.) and the time (in seconds) for which the animal remains without moving its tail is measured.
A maximum period of time of 8 seconds under the heat source is chosen, after which the animal is, in any case, removed to avoid tissue damage. The measurement is effected before (controls) and after treatment with the drugs.
The percentage variation is calculated for each individual animal by the following formula: [formula] The measurements were carried out 10, 20, 30, 45, 60 and 90 minutes after treatment with the analgesics.

For experiment [1], the system named is activity of analgesic drugs. Kind of experiment: Hot-plate test, potentiation of analgesic drugs (Experiment 2). The format is in vivo, rats. The following applies: methadone 1 mg/kg i.p. alone. How it is done:
Experiment No. 2: Hot-plate test
The method is that described by Eddy et al. (J. Pharmac. Exp. Ther. 107, 385 (1953)).
Groups of five male rats having a weight of about 150 g, and which have not fasted, are used.
The animals are placed on a metal plate on the bottom of a transparent cylinder, which is heated to 55°±1° C. by an azeotropic boiling mixture (acetone-ethyl formate 1:1).
The reaction time is defined as the interval which passes between the moment at which the animal is placed on the hot-plate and the moment at which it either licks its feet or tries to jump out of the cylinder. The control reaction time is measured 10 and 5 minutes before administration of the drugs and 10, 20, 30, 45, 60 and 90 minutes afterwards. The animals are left on the plate for a maximum period of 30 seconds.
The response to the administration of the product is considered positive if at least a doubling of the normal reaction time is seen. The results obtained are given in Tables 2a and 2b which record the groups treated, the doses administered and the stay times on the plate expressed as the number of positive responses over the number treated.
(In general: Thermal pain tests record how soon the animal reacts.)

Turning to `CCCNC(=O)C(CCC(=O)O)NC(=O)c1ccc(C)c(C)c1` (stereo not drawn) [Compound C-45], the “percentage variation of latency of pain sensation” value with morphine analgesia (10') was 57.2 ± 18%; in the experiment on morphine analgesia (20'), 99.7 ± 0.3%; in the experiment with morphine analgesia (30'), 95.7 ± 4%; in the experiment with morphine analgesia (45') it was 93.1 ± 7%; in the experiment with morphine analgesia (60'), 77.7 ± 11%; with morphine analgesia (90') it was 80.4%. Further, the “M (10-90) ± SE, mean percentage variation of latency” value in the experiment on morphine analgesia came out at 84.0 ± 16%. For the same molecule, the “Power ratio with respect to morphine alone” value (shortened to “Power ratio”) in the experiment on morphine analgesia came out at 2.82.

With `CCC(=O)C(CC(C)N(C)C)(c1ccccc1)c1ccccc1` (stereo not drawn) [Methadone, reference compound], the TOTAL positives in experiment [1] is given as 8 X/30. Also, the “positive responses over number treated” value is listed as 1/5 in experiment [1] (10'); 2/5 in experiment [1] (20'); 1/5 in experiment [1] (30'); 2/5 in experiment [1] (45'); 1/5 in experiment [1] (60'); 1/5 in experiment [1] (90').

On to `Cc1ccc(C(=O)NC(CCC(=O)O)C(=O)N(C)C)cc1C` (stereo not drawn) [Compound C-50], for which the “percentage variation of latency of pain sensation” value in the experiment on morphine analgesia (10') is given as 22.3 ± 13%; in the experiment with morphine analgesia (20'), 68.9 ± 9%; in the experiment with morphine analgesia (30'), 60.2 ± 19%; in the experiment on morphine analgesia (45'), 49.4 ± 14%; with morphine analgesia (60') it was 73.5 ± 15%; in the experiment with morphine analgesia (90'), 24.7 ± 6%. The “M (10-90) ± SE, mean percentage variation of latency” value in the experiment with morphine analgesia was 49.8 ± 22%. For the same molecule, the “Power ratio” value in the experiment on morphine analgesia turned out to be 1.67.

Consider `CCCCNC(=O)C(CCC(=O)O)NC(=O)c1ccc(CC)cc1` (stereo not drawn) [Compound C-43], for which the “percentage variation of latency of pain sensation” value in the experiment with morphine analgesia (10') is 54.1 ± 17%; in the experiment on morphine analgesia (20'), 44.4 ± 23%; with morphine analgesia (30') it was 38.9 ± 26%; in the experiment on morphine analgesia (45'), 36.8 ± 27%; in the experiment on morphine analgesia (60') it was 47.8 ± 23%; in the experiment on morphine analgesia (90'), 22.5 ± 13%. Further, the “M (10-90) ± SE, mean percentage variation of latency” value in the experiment with morphine analgesia amounted to 40.7 ± 11%. The “Power ratio” value in the experiment with morphine analgesia is 1.36.

`CCCCN(CCCC)C(=O)C(CCC(=O)O)NC(=O)c1cccc(C)c1` (stereo not drawn) [Compound C-53]: the “percentage variation of latency of pain sensation” value in the experiment on morphine analgesia (10') came out at 31.2 ± 15%; in the experiment on morphine analgesia (20'), 46.7 ± 28%; in the experiment with morphine analgesia (30'), 70.2 ± 23%; in the experiment on morphine analgesia (45'), 76.9 ± 22%; with morphine analgesia (60'), 45.6 ± 27%; in the experiment on morphine analgesia (90') it was 12.6 ± 25%. In the experiment with morphine analgesia, the “M (10-90) ± SE, mean percentage variation of latency” value was determined as 47.2 ± 24%. The “Power ratio” value in the experiment on morphine analgesia was found to be 1.58.

On to `Cc1ccc(C(=O)NC(CCC(=O)O)C(=O)N2CCCCC2)cc1C` (stereo not drawn) [Compound C-52], for which the “percentage variation of latency of pain sensation” value is on record as 72.8 ± 15% with morphine analgesia (10'); 95.8 ± 3% with morphine analgesia (20'); 96.3 ± 4% in the experiment with morphine analgesia (30'); 85.5 ± 10% in the experiment on morphine analgesia (45'); 87.6% with morphine analgesia (60'); 45.3 ± 6% with morphine analgesia (90'). Also, the “M (10-90) ± SE, mean percentage variation of latency” value with morphine analgesia is 80.6 ± 19%. In the experiment with morphine analgesia, the “Power ratio” value is 2.70.

With `CC(C)c1ccc(C(=O)NC(CCC(=O)O)C(=O)NC2CCCCC2)cc1` (stereo not drawn) [Compound C-49], the “percentage variation of latency of pain sensation” value in the experiment on morphine analgesia (10') amounted to 62.1 ± 9%; in the experiment with morphine analgesia (20'), 100.0 ± 0%; in the experiment with morphine analgesia (30') it was 97.6 ± 2%; in the experiment on morphine analgesia (45') it was 99.5 ± 0.5%; in the experiment on morphine analgesia (60'), 99.2 ± 0.5%; in the experiment with morphine analgesia (90'), 65.8 ± 0.8%. The “M (10-90) ± SE, mean percentage variation of latency” value in the experiment on morphine analgesia amounted to 87.4%. The “Power ratio” value with morphine analgesia stood at 2.93.

For the molecule `CCCCNC(=O)CCC(NC(=O)c1ccc(CC)cc1)C(=O)O` [Compound D-13], the “percentage variation of latency of pain sensation” value was found to be 7.1 ± 8% with morphine analgesia (10'); 32% in the experiment on morphine analgesia (20'); 62.5 ± 23% with morphine analgesia (30'); 31.8 ± 21% in the experiment with morphine analgesia (45'); 48.5 ± 22% with morphine analgesia (60'); 50.9 ± 14% in the experiment with morphine analgesia (90'). Besides, in the experiment on morphine analgesia, the “M (10-90) ± SE, mean percentage variation of latency” value is given as 38.8 ± 20%. Moreover, the “Power ratio” value in the experiment with morphine analgesia came to 1.30.

With `CCCNC(=O)CCC(NC(=O)c1ccc(C)c(C)c1)C(=O)O` [Compound D-16], the “percentage variation of latency of pain sensation” value is reported as 29.7 ± 21% with morphine analgesia (10'); 42.8 ± 18% in the experiment with morphine analgesia (20'); 40.1 ± 22% in the experiment on morphine analgesia (30'); 35.4 ± 18% in the experiment on morphine analgesia (45'); 33.3 ± 20% in the experiment with morphine analgesia (60'); 23.3% in the experiment on morphine analgesia (90'). In addition, in the experiment on morphine analgesia, the “M (10-90) ± SE, mean percentage variation of latency” value is recorded as 34.1 ± 17%. Moreover, the “Power ratio” value with morphine analgesia came out at 1.14.

For the molecule `CCN(CC)C(=O)C(CCC(=O)O)NC(=O)c1ccc(C)c(C)c1` (stereo not drawn) [Compound C-40], the “percentage variation of latency of pain sensation” value with morphine analgesia (10') was found to be 43.8 ± 15%; in the experiment with morphine analgesia (20') it was 69.1%; with morphine analgesia (30') it was 49.0 ± 23%; in the experiment with morphine analgesia (45'), 85.6 ± 6%; in the experiment with morphine analgesia (60'), 76.5 ± 17%; with morphine analgesia (90') it was 61.5 ± 14%. The “M (10-90) ± SE, mean percentage variation of latency” value in the experiment on morphine analgesia was 64.2 ± 16%. Besides, in the experiment with morphine analgesia, the “Power ratio” value is reported as 2.15.

Consider `CCCCNC(=O)C(CCC(=O)O)NC(=O)c1ccc(CCC)cc1` (stereo not drawn) [Compound C-44], for which the “percentage variation of latency of pain sensation” value in the experiment on morphine analgesia (10') is listed as -1.6 ± 11%; in the experiment on morphine analgesia (20') it was 17.0 ± 6%; in the experiment with morphine analgesia (30'), 24.9%; in the experiment on morphine analgesia (45'), 26.9 ± 19%; in the experiment with morphine analgesia (60'), 35.1 ± 17%; in the experiment on morphine analgesia (90'), 39.8 ± 8%. The “M (10-90) ± SE, mean percentage variation of latency” value in the experiment with morphine analgesia came to 23.7 ± 15%. In the experiment with morphine analgesia, the “Power ratio” value was 0.79.

Regarding `CCCN(CCC)C(=O)C(CCC(=O)O)NC(=O)c1ccc(CC(C)C)cc1` (stereo not drawn) [Compound C-38], the “percentage variation of latency of pain sensation” value came to 53.8% with morphine analgesia (10'); 85.7 ± 10% in the experiment with morphine analgesia (20'); 92.0 ± 8% in the experiment with morphine analgesia (30'); 99.1 ± 1% with morphine analgesia (45'); 91.2 ± 9% in the experiment on morphine analgesia (60'); 51.1 ± 14% with morphine analgesia (90'). Besides, the “M (10-90) ± SE, mean percentage variation of latency” value in the experiment with morphine analgesia worked out at 78.8%. Besides, in the experiment on morphine analgesia, the “Power ratio” value amounted to 2.64.

With `Cc1ccc(C(=O)NC(CCC(=O)O)C(=O)N2CCOCC2)cc1C` (stereo not drawn) [Compound C-51], the “percentage variation of latency of pain sensation” value was 78.7 ± 18% in the experiment with morphine analgesia (10'); 82.8% in the experiment with morphine analgesia (20'); 90.5 ± 10% in the experiment on morphine analgesia (30'); 86.4 ± 14% in the experiment with morphine analgesia (45'); 65.6 ± 13% in the experiment with morphine analgesia (60'); 48.5 ± 10% with morphine analgesia (90'). Also, the “M (10-90) ± SE, mean percentage variation of latency” value with morphine analgesia is recorded as 75.4 ± 16%. Besides, the “Power ratio” value in the experiment on morphine analgesia stood at 2.53.

Turning to `CCCCNC(=O)CCC(NC(=O)c1ccc(CCC)cc1)C(=O)O` [Compound D-14], the “percentage variation of latency of pain sensation” value in the experiment on morphine analgesia (10') amounted to 69.2 ± 14%; in the experiment on morphine analgesia (20'), 93.4 ± 7%; with morphine analgesia (30') it was 46.8 ± 15%; with morphine analgesia (45'), 71.3 ± 17%; with morphine analgesia (60'), 89.1 ± 9%; in the experiment on morphine analgesia (90'), 60.3%. Moreover, the “M (10-90) ± SE, mean percentage variation of latency” value with morphine analgesia amounted to 71.1 ± 14%. Further, the “Power ratio” value with morphine analgesia is reported as 2.41.

The values above are taken from patent US4791215A, “Derivatives of glutamic acid and aspartic acid” (priority 1984, dated 1988).
